Columns and labels:
[1] = system: Borrelia sp.; assay: turbidity test at 100 μg/ml; type: cell-based; conditions: 24 hours
[2] = system: E. coli 14; assay: turbidity test at 100 μg/ml; type: cell-based; conditions: 24 hours
[3] = system: Corynebacterium pyogenes M; assay: turbidity test at 100 μg/ml; type: cell-based; conditions: 24 hours
[4] = system: Neisseria cartarrhalis sp.; assay: turbidity test at 100 μg/ml; type: cell-based; conditions: 24 hours
[5] = system: Staphylococcus aureus 133; assay: turbidity test at 100 μg/ml; type: cell-based; conditions: 24 hours
[6] = system: Klebsiella 62; assay: animal experiment, Klebsiella 62 infection; conditions: s.c. 2 × 3000 Units per animal, experiment with Ex.1
[7] = system: E. Coli c165; assay: turbidity test at 100 μg/ml; type: cell-based; conditions: 24 hours
[8] = system: Klebsiella K 10; assay: MIC, test tube series dilution test, Klebsiella K 10; type: cell-based; conditions: 24 hours, 37°C
[9] = system: Staph. aureus 133; type: cell-based, Staphylococcus aureus; conditions: Staph. aureus 133; 24 hours, 37°C
[10] = system: Streptococcus pyogenes W; assay: turbidity test at 100 μg/ml; type: cell-based; conditions: 24 hours
[11] = system: Proteus vulgaris 1017; assay: turbidity test at 100 μg/ml; type: cell-based; conditions: 24 hours
[12] = system: Proteus, indole-negative, sp.; assay: turbidity test at 100 μg/ml; type: cell-based; conditions: 24 hours
[13] = system: Serratia sp.; assay: turbidity test at 100 μg/ml; type: cell-based; conditions: 24 hours
[14] = system: Psdm. aerug. Walter; assay: MIC, test tube series dilution test, Psdm. aerug. Walter; type: cell-based, Pseudomonas aeruginosa; conditions: Psdm. aerug. Walter; 24 hours, 37°C
[15] = system: Klebsiella 63; assay: MIC, test tube series dilution test, Klebsiella 63; type: cell-based; conditions: Klebsiella 63; 24 hours, 37°C
[16] = system: Enterobacter sp.; assay: turbidity test at 100 μg/ml; type: cell-based; conditions: 24 hours
[17] = system: Staph. aureus 1756; assay: MIC, test tube series dilution test, Staph. aureus 1756; type: cell-based, Staphylococcus aureus; conditions: Staph. aureus 1756; 24 hours, 37°C
[18] = system: Lactobacillus sp.; assay: turbidity test at 100 μg/ml; type: cell-based; conditions: 24 hours
[19] = system: E. coli 183/58; assay: MIC, test tube series dilution test, E. coli 183/58; type: cell-based; conditions: 24 hours, 37°C
[20] = system: Brucella sp.; type: cell-based; conditions: 100 μg/ml, 24 hours
[21] = system: Proteus vulg. 1017; type: cell-based, Proteus vulgaris; conditions: Proteus 1017; 24 hours, 37°C
[22] = system: Pseudomonas aeruginosa sp.; assay: turbidity test at 100 μg/ml; type: cell-based; conditions: 24 hours
[23] = system: Haemophilus influenzae; assay: turbidity test at 100 μg/ml; type: cell-based; conditions: 24 hours
[24] = system: Enterococcus 9790; assay: MIC, test tube series dilution test, Enterococcus 9790; type: cell-based; conditions: 24 hours, 37°C
[25] = system: Salmonella sp.; assay: turbidity test at 100 μg/ml; type: cell-based
[26] = system: Proteus, indole-positive, sp.; assay: turbidity test at 100 μg/ml; type: cell-based; conditions: 24 hours
[27] = system: E. coli A 261; assay: MIC, test tube series dilution test, E. coli A 261; type: cell-based; conditions: 24 hours, 37°C
[28] = system: Bordetella bronchiseptica; assay: turbidity test at 100 μg/ml; type: cell-based; conditions: 24 hours
[29] = system: Pasteurella pseudotuberculosis; type: cell-based; conditions: 100 μg/ml, 24 hours
[30] = system: Klebsiella 63; assay: turbidity test at 100 μg/ml; type: cell-based; conditions: 24 hours
[31] = system: E. coli 14; type: cell-based; conditions: E. coli 14; 24 hours, 37°C
[32] = system: Enterococcus sp.; assay: turbidity test at 100 μg/ml; type: cell-based; conditions: 24 hours
[33] = system: Bacteroides sp.; assay: turbidity test at 100 μg/ml; type: cell-based; conditions: 24 hours
[34] = system: Clostridium tetani; type: cell-based; conditions: 100 μg/ml, 24 hours
[35] = system: Shigella sp.; assay: turbidity test at 100 μg/ml; type: cell-based
[36] = system: E. coli C 165; assay: MIC, test tube series dilution test, E. coli C 165; type: cell-based; conditions: 24 hours, 37°C
[37] = system: Clostridium botulinium; type: cell-based
[38] = system: Diplococcus pneumoniae sp.; assay: turbidity test at 100 μg/ml; type: cell-based; conditions: 24 hours
[39] = system: Klebsiella K 10; assay: turbidity test at 100 μg/ml; type: cell-based; conditions: 24 hours
[40] = system: Proteus morg. 932; assay: MIC, test tube series dilution test, Proteus morg. 932; type: cell-based; conditions: 24 hours, 37°C
[41] = system: Corynebacterium diphteriae gravis; assay: turbidity test at 100 μg/ml; type: cell-based; conditions: 24 hours
[42] = system: Aeromonas hydrophila sp.; assay: turbidity test at 100 μg/ml; type: cell-based; conditions: 24 hours
[43] = system: Psdm. aerug. F 41; assay: MIC, test tube series dilution test, Psdm. aerug. F 41; type: cell-based, Pseudomonas aeruginosa; conditions: Psdm. aerug. F 41; 24 hours, 37°C

CC1(C)S[C@@H]2[C@H](NC(=O)[C@H](NC(=O)c3ccc(NC(=O)C4CC4)cc3)c3ccccc3)C(=O)N2[C@H]1C(=O)O [Example 1, sodium D(-)-α-(4-cyclopropanecarbonylamino-benzoylamino)-benzylpenicillin]
non-turbid: degree of turbidity [1] | degree of turbidity [2] | degree of turbidity [3] | degree of turbidity [4] | degree of turbidity [5] | degree of turbidity [7] | degree of turbidity [10] | degree of turbidity [11] | degree of turbidity [12] | degree of turbidity [13] | degree of turbidity [16] | degree of turbidity [18] | degree of turbidity [20] | degree of turbidity [22] | degree of turbidity [23] | degree of turbidity [25] | degree of turbidity [26] | degree of turbidity [28] | degree of turbidity [29] | degree of turbidity [30] | degree of turbidity [32] | degree of turbidity [33] | degree of turbidity [34] | degree of turbidity [35] | degree of turbidity [37] | degree of turbidity [38] | degree of turbidity [39] | degree of turbidity [41] | degree of turbidity [42]
32 U/ml: MIC [43]
~ 8 U/ml: MIC [24]
64 U/ml: MIC [8] | MIC [15] | MIC [17]
4 U/ml: MIC [31]
8 U/ml: MIC [40]
> 256 U/ml: MIC [27]
50%: Surviving animals ([6]; 3rd day after infection) | Surviving animals ([6]; 5th day after infection)
< 32 U/ml: MIC [21]
16 U/ml: MIC [14] | MIC [19] | MIC [36]
100%: Surviving animals ([6]; 1st day after infection) | Surviving animals ([6]; 2nd day after infection)
< 1 U/ml: MIC [9]

Source: patent US4001218A, “Penicillins” (Bayer Aktiengesellschaft, priority 1972, dated 1977)
